Measured values as given in patent US10031129B2, “G-protein coupled receptor polypeptides involved in sensory transduction” (The Regents of the University of California, priority 1998, dated 2018).

Assays:
[1] = target: T1, mammalian γ-opiod receptor (Homo sapiens, UniProt P35372); experiment: ligand-induced changes in [Ca2+]i in control cells expressing γ-opiod/Gα15; assay type: cell-based; details: HEK-293 control cells; dependent on Gα15; rapid onset
T1 construct: expressed in transfected cells; host or cells: HEK-293 line expressing SV40 T-antigen; CMV-γ-opiod and TK-Gα15 constructs
From the text: (§1) To determine the ligand selectivity of GPCR-B4, expression in heterologous cells was used. One issue for GPCR expression in heterologous cells is determining how to couple the GPCR to a G-protein and an appropriate signaling pathway. In this example, the G-protein subunit Gα15 was used, which promiscuously couples a wide range of GPCRs to the phospholipase C-mediated signaling pathway (Offermans & Simon, J. Biol. Chem. 270:15175-15180 (1995)). Consequently, receptor activity can be effectively measured by recording ligand-induced changes in [Ca^2+]i using fluorescent Ca^2+-indicator dyes and fluorometric imaging.
(§2) To insure expression of GPCR-B4 in the plasma membrane, a variety of cell lines and expression vectors were tested. […] An HEK-293 line expressing SV40 T-antigen was co-transfected with a TK-Gα15, CMV-γ-opiod and a pEAK-10 episomal vector (Edge Biosystems) containing a EF1a-[B4-GPCR]construct. Transfection efficiencies were determined using CMV-GFP constructs.

GPCR-B4 = target: T2, GPCR-B4 (Rattus norvegicus, UniProt Q9Z0R7); experiment: ligand-induced changes in [Ca2+]i in HEK-293 cells expressing B4/Gα15 (fluorescent Ca2+-indicator dyes, fluorometric imaging); assay type: cell-based; details: HEK-293 line expressing SV40 T-antigen; B4 receptor dependent
T2 construct: expressed in transfected cells; host or cells: HEK-293 line expressing SV40 T-antigen; pEAK-10 episomal vector (Edge Biosystems) with EF1a-[B4-GPCR] construct; TK-Gα15
T2 sequence (Q9Z0R7 20-843): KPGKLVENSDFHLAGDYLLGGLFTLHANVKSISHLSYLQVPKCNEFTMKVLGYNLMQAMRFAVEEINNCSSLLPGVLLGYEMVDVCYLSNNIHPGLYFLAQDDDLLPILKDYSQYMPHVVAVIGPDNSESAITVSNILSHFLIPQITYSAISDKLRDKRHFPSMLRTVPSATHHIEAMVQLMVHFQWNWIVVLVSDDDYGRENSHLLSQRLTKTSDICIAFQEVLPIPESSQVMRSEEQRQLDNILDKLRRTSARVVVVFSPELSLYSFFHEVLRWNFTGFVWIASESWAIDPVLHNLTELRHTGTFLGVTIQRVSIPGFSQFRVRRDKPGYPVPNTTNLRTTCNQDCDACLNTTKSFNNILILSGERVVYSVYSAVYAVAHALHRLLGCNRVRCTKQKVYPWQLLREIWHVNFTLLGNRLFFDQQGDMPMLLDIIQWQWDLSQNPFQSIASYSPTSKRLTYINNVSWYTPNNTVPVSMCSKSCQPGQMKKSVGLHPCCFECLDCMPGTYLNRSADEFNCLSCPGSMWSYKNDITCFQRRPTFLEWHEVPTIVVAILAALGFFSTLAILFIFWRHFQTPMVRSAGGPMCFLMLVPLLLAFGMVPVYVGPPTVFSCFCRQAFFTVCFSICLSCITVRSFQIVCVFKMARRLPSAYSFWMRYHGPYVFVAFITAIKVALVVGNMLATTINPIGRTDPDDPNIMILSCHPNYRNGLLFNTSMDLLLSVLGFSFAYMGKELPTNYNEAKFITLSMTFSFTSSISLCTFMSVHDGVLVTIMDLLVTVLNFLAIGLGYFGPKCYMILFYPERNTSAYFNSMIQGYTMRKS
From the text: as §1, §2

T1 sequence (P35372 whole entry): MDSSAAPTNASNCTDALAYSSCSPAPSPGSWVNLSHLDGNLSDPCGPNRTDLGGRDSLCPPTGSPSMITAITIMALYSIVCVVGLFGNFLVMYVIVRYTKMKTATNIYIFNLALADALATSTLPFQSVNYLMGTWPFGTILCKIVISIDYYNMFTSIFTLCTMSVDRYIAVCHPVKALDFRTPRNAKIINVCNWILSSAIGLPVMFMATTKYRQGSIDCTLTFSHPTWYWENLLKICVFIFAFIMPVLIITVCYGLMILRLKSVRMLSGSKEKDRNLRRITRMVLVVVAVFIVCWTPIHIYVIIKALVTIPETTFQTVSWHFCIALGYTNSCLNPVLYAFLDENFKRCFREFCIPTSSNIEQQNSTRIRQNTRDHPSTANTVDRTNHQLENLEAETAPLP

Row | SMILES | response (change in [Ca2+]i) of control cells expressing γ-opiod/Gα15 [1] | response (change in [Ca2+]i) of cells expressing B4/Gα15 or B4/Gα15/γ-opiod (GPCR-B4)
1 | C[C@@H](NC(=O)[C@@H](N)Cc1ccc(O)cc1)C(=O)NCC(=O)N(C)[C@@H](Cc1ccccc1)C(=O)NCCO [DAMGO] | respond robustly | –
2 | NC(=S)Nc1ccccc1 [PTC, phenylthiocarbamide] | – | respond
